Consider one molecule from patent publication US11771671B2, “Use of (1S,3S)-3-amino-4-(difluoromethylidene) cyclopentane-1-carboxylic acid and (S)-3-amino-4-(difluoromethylenyl)cyclopent-1-ene-1-carboxylic acid in the treatment of tinnitus, acute sensorineural hearing loss, Meniere's disease, Tourette's syndrome, attention deficit hyperactivity disorder and …” (Ovid Therapeutics Inc., priority 2018, dated 2023).

The nature of this series: plasma pharmacokinetics. Format: in vivo.

In general, half-life refers to the time in which the quantity being followed falls by half. Regarding `N[C@H]1C[C@@H](C(=O)O)CC1=C(F)F` [(1S,3S)-3-amino-4-(difluoromethylidene)cyclopentane-1-carboxylic acid], for the setting “dose range of 5 mg-500 mg”, the AUCs dose proportionality result was “greater than proportional increase” and the C. dose proportionality entry is listed as “increases in a dose proportional manner”. Further, the half-life (plasma, read-out: plasma elimination half-life) lay within 4 to 6 h.
